In publication PMC11747885, “Potent inhibitors of the human RNA ligase Rlig1 highlights its role in RNA integrity maintenance under oxidative cellular stress” (Chemical Science, 2025):
Where “and” joins values, the source holds several entries; their conditions need not be identical. Equal entries are not always repeated. Where two headings read alike, the source gives them in different places.

Assays:
[1] = biological target: T1, Rlig1-AMP (Homo sapiens, UniProt Q8N999); assay: FRET-based high-throughput screening of inhibitors for Rlig1-AMP; format: biochemical; conditions: HTS hits; for Raw data [w Enyzm]: with enzyme; for Raw data [w/o Enzym]: without enzyme
T1 construct: made in house; host or cells: E. coli BL21 (DE3), pET15b-Rlig1
T1 sequence (Q8N999 whole entry): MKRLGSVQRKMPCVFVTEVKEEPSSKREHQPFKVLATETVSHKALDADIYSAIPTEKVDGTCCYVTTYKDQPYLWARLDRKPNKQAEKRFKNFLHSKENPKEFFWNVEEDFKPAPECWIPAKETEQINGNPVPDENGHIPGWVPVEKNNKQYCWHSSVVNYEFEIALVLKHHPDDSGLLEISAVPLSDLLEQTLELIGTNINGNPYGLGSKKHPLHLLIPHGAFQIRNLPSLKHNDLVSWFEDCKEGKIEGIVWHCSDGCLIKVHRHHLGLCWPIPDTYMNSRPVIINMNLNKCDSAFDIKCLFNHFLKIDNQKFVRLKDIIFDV

[2] = system: c-Myc-Max; design: method as in MedChemExpress; conditions: c-Myc-Max dimerization; ref MedChemExpress; cited from earlier work
[3] = biological target: B-Raf kinase; design: method as in MedChemExpress; conditions: ref MedChemExpress; cited from earlier work
[4] = system: GLP; design: method as in MedChemExpress; conditions: ref MedChemExpress; cited from earlier work
[5] = system: G9a; design: method as in MedChemExpress; conditions: ref MedChemExpress; cited from earlier work
[6] = system: A375; design: method as in MedChemExpress; conditions: ref MedChemExpress, read-out: IC50, Pol I-mediated rRNA synthesis; cited from earlier work
[7] = system: MIA PaCa-2 cells; design: method as in MedChemExpress; conditions: ref MedChemExpress, read-out: IC50, Pol I-mediated rRNA synthesis; cited from earlier work
[8] = system: HCT-116; design: method as in MedChemExpress; conditions: ref MedChemExpress, read-out: IC50, Pol I-mediated rRNA synthesis; cited from earlier work
[9] = system: Pol II; design: method as in MedChemExpress; conditions: ref MedChemExpress; cited from earlier work
[10] = system: Pim-1; design: method as in MedChemExpress; conditions: ref MedChemExpress; cited from earlier work
[11] = system: Pim-2; design: method as in MedChemExpress; conditions: ref MedChemExpress; cited from earlier work
[12] = ref MedChemExpress, cited from earlier work
[13] = biological target: λB; design: method as in MedChemExpress; conditions: in vitro; ref MedChemExpress; read-out: KD, DB1976-λB affinity; cited from earlier work
[14] = system: PU.1; design: method as in MedChemExpress; conditions: in vitro; ref MedChemExpress; read-out: IC50, PU.1 binding; cited from earlier work
[15] = system: transcription factor PU.1; design: method as in MedChemExpress; conditions: ref MedChemExpress; cited from earlier work
[16] = system: FLT3-D835Y; design: method as in MedChemExpress; conditions: ref MedChemExpress; cited from earlier work
[17] = system: FLT3 wild type; design: method as in MedChemExpress; conditions: ref MedChemExpress; cited from earlier work
[18] = system: ALK2; design: method as in MedChemExpress; conditions: ref MedChemExpress; cited from earlier work
[19] = biological target: tau protein; design: method as in MedChemExpress; conditions: tau protein aggregation; ref MedChemExpress; cited from earlier work
[20] = system: L-type currents; design: method as in MedChemExpress; conditions: ref MedChemExpress; cited from earlier work
[21] = system: T-type Ca2+ channels; design: method as in MedChemExpress; conditions: T-type currents; ref MedChemExpress; cited from earlier work
[22] = system: Shp1 (SH-PTP1); design: method as in MedChemExpress; conditions: ref MedChemExpress; cited from earlier work
[23] = biological target: BCL-2; design: method as in MedChemExpress; conditions: ref MedChemExpress; cited from earlier work
[24] = system: JAK2; design: method as in MedChemExpress; conditions: ref MedChemExpress; cited from earlier work
[25] = system: Tyk2; design: method as in MedChemExpress; conditions: ref MedChemExpress; cited from earlier work
[26] = system: JAK1; design: method as in MedChemExpress; conditions: ref MedChemExpress; cited from earlier work
[27] = system: JAK3; design: method as in MedChemExpress; conditions: ref MedChemExpress; cited from earlier work
[28] = biological target: NMDA receptor; design: method as in MedChemExpress; conditions: ref MedChemExpress; cited from earlier work
[29] = system: FGFR2; design: method as in MedChemExpress; conditions: ref MedChemExpress; cited from earlier work
[30] = system: Fgr; design: method as in MedChemExpress; conditions: ref MedChemExpress; cited from earlier work
[31] = system: PDGFRβ; design: method as in MedChemExpress; conditions: ref MedChemExpress; cited from earlier work
[32] = system: VEGFR1; design: method as in MedChemExpress; conditions: ref MedChemExpress; cited from earlier work
[33] = system: Fyn; design: method as in MedChemExpress; conditions: ref MedChemExpress; cited from earlier work
[34] = system: Lyn; design: method as in MedChemExpress; conditions: ref MedChemExpress; cited from earlier work
[35] = system: Lck; design: method as in MedChemExpress; conditions: ref MedChemExpress; cited from earlier work
[36] = system: Hck; design: method as in MedChemExpress; conditions: ref MedChemExpress; cited from earlier work
[37] = system: Yes; design: method as in MedChemExpress; conditions: ref MedChemExpress; cited from earlier work
[38] = DMSO; ref MedChemExpress; cited from earlier work
[39] = system: VEGFR2; design: method as in MedChemExpress; conditions: ref MedChemExpress; cited from earlier work
[40] = system: Src; design: method as in MedChemExpress; conditions: ref MedChemExpress; cited from earlier work
[41] = system: FGFR1; design: method as in MedChemExpress; conditions: ref MedChemExpress; cited from earlier work
[42] = system: CDK7; design: method as in MedChemExpress; conditions: ref MedChemExpress; cited from earlier work
[43] = system: BRD4 BD2; design: method as in MedChemExpress; conditions: ref MedChemExpress; cited from earlier work
[44] = system: BRD4 BD1; design: method as in MedChemExpress; conditions: ref MedChemExpress; cited from earlier work
[45] = difference of raw data w/o and w enzyme
[46] = normalised value of 1-D Distance
[47] = difference of raw data without and with enzyme

Row | SMILES | 1-D Distance [1, 45] | 1-D Distance.npi ([1]; normalized value (npi)) | Raw data [w Enyzm] [1] | Raw data [w/o Enzym] [1] | also measured
1 | O=[N+]([O-])c1ccc(Nc2ccccc2-c2ccccc2)c2nonc12 [10074-G5] | 758 | 91.4368 | 1415 | 2173 | IC50 [2]: 146000 nM
2 | CN(C)Cc1ccc(-c2cnn3c(-c4cccc(NC(=O)c5cccc(C(F)(F)F)c5)c4)ccnc23)cc1 [B-Raf IN 1] | 563 | 95.4397 | 7195 | 7758 | IC50 [3]: […]
3 | COc1cc2c(NC3CCN(C)CC3)cc(-c3ccc(C)o3)nc2cc1OCCCN1CCCC1 [CM-272] | 449 | 99.0872 | 6004 | 6453 | IC50 [4]: 2 nM; IC50 [5]: […]
4 | Cc1cnc(CNC(=O)c2c(=O)c3ccc(N4CCCN(C)CC4)nc3n3c2sc2ccccc23)cn1.Cl.Cl [CX-5461 dihydrochloride] | 1694 | – | 7215 | 8909 | 1-D Distance.npi [1, 46]: 72.2021; IC50 [6]: 113 nM; IC50 [7]: 54 nM; IC50 [8]: 142 nM; IC50 [9]: ≥ 25000 nM
5 | CN1CCCN(C(=O)c2cccc(-c3ccc(/C=C4/C(=O)Nc5ccc(Cl)cc54)o3)c2)CC1 [CX-6258] | 641 | 93.2533 | 5174 | 5815 | IC50 [10]: […]; IC50 [11]: 25 nM; solubility ([12]; DMSO): […]
6 | Cl.Cl.N=C(N)c1ccc2nc(-c3ccc(-c4nc5ccc(C(=N)N)cc5[nH]4)[se]3)[nH]c2c1 [DB1976 (dihydrochloride)] | 102 | 105.279 | 4805 | 4703 | Kd [13]: 12 nM; solubility ([12]; DMSO): 62.5 mg/mL and 120.13 mM; solubility ([12]; H2O): 18.33 mg/mL and 35.23 mM; IC50 [14]: 10 nM
7 | CC(C)N=C(N)c1ccc2nc(-c3ccc(OCc4cccc(COc5ccc(-c6nc7ccc(C(N)=NC(C)C)cc7[nH]6)cc5)c4F)cc3)[nH]c2c1 [DB2313] | 699 | – | 5551 | 4852 | 1-D Distance.npi [1, 46]: 88.7864; PU.1 inhibitor with an apoptosis of [15]: DB2313 is a potent transcription factor PU.1 inhibitor with an apoptosis of 14 nM. DB2313 disrupts the interaction of PU.1 with target gene promoters. DB2313 induces apoptosis of acute myeloid leukemia (AML) cells, and has anticancer effects[1].
8 | CN1CCC(Nc2nc(Nc3ccc(Oc4ccccc4)cc3)c3c(=O)[nH]cc(Br)c3n2)CC1 [G-749] | 603 | 93.9141 | 7489 | 8092 | IC50 [16]: 0.6 nM; IC50 [17]: 0.4 nM
9 | c1cc(-c2cnn3cc(-c4ccc(N5CCNCC5)cc4)cnc23)c2cccnc2c1 [LDN-212854] | 1181 | 85.2649 | 7408 | 8589 | IC50 [18]: 1.3 nM; solubility ([12]; DMSO): ≥ 30 mg/mL and ≥ 73.80 mM
10 | CN(C)c1ccc2c(c1)Sc1cc(N(C)C)ccc1N2.CS(=O)(=O)O.CS(=O)(=O)O [Leucomethylene blue (mesylate)] | 1844 | 72.1191 | 4383 | 6227 | Ki [19]: 120 nM
11 | COCC(=O)O[C@]1(CCN(C)CCCc2nc3ccccc3[nH]2)CCc2cc(F)ccc2[C@@H]1C(C)C.Cl.Cl [Mibefradil (dihydrochloride)] | – | – | 9508 | 11294 | IC50 [20]: 18600 nM; 1-D Distance.npi ([1]; MedChemExpress library): 70.2795; 1-D Distance [1, 47]: 1786; IC50 [21]: 2700 nM
12 | O=S(=O)(O)c1ccc2cc(N=Nc3cc(S(=O)(=O)O)c4cccnc4c3O)ccc2c1 [NSC-87877] | 982 | 87.5142 | 1020 | – | IC50 [22]: 355 nM; solubility ([12]; DMSO): 25 mg/mL and 54.41 mM
13 | COC1=CC(c2cc3ccccc3[nH]2)=N/C1=C\c1[nH]c(C)cc1C.CS(=O)(=O)O [Obatoclax (Mesylate)] | 702 | 94.4219 | 1010 | 1712 | Ki [23]: 220 nM
14 | NC(=O)c1cnc2[nH]ccc2c1N[C@@H]1[C@@H]2CC3C[C@H]1C[C@@](O)(C3)C2 [Peficitinib] | 1954 | – | 8816 | 10770 | IC50 [24]: 5 nM; IC50 [25]: 4.8 nM; IC50 [26]: 3.9 nM; IC50 [27]: […]
15 | N[C@@H](Cc1cc(CP(=O)(O)O)cc(-c2ccccc2Cl)c1)C(=O)O [SDZ 220-581] | 1679 | 76.8207 | 24871 | 26550 | pKi [28]: SDZ 220-581 is an orally active, potent, competitive NMDA receptor antagonist with pKi value of 7.7[1].; solubility ([12]; DMSO): 8.57 mg/mL and 23.18 mM
16 | Cc1cc(-c2cc(O)ccc2Cl)cc2nnc(Nc3ccc(OCCN4CCCC4)cc3)nc12.Cl [TG 100572 (Hydrochloride)] | – | – | 3376 | 3338 | 1-D Distance.npi ([1]; MedChemExpress library): 103.738; 1-D Distance [1, 47]: 38; IC50 [29]: 16 nM; IC50 [30]: 5 nM; IC50 [31]: 13 nM; IC50 [32]: 2 nM; IC50 [33]: 0.5 nM; IC50 [34]: 0.4 nM; IC50 [35]: 0.1 nM; IC50 [36]: 6 nM; IC50 [37]: 0.2 nM; solubility [38]: 25 mg/mL and 48.79 mM; IC50 [39]: 7 nM; IC50 [40]: 1 nM; IC50 [41]: 2 nM
17 | CN(C)C/C=C/C(=O)Nc1ccc(C(=O)Nc2cccc(Nc3ncc(Cl)c(-c4c[nH]c5ccccc45)n3)c2)cc1.Cl [THZ1 (Hydrochloride)] | 289 | 99.9172 | 6030 | 5741 | IC50 [42]: 3.2 nM
18 | Cc1cc(N=Nc2ccc3c(c2)CCC(=O)N3)c(N)cc1O [ZL0420] | 1352 | 80.8903 | 1680 | 3032 | IC50 [43]: 32 nM; IC50 [44]: 27 nM
